pKi: −log10 of the molar value. Calls of active or inactive are those of the source. The calls are words filed in the database; no cut-off is given here.
Tests used:
[1] = target: Indoleamine 2,3-dioxygenase 1 (Homo sapiens, UniProt P14902); test: Competitive inhibition of human indoleamine 2,3-dioxygenase assessed as conversion of N-formylkynurenine to kynurenine after 2 hrs by spectrophotometrical analysis
NSC-24 = test: Inhibition of Erk phosphorylation in human NSC-24 cells at 100 uM after 30 mins by Western blot analysis; assay type: cell-based
TG1 = test: Induction of Erk phosphorylation in human TG1 cells at 100 uM after 30 mins by Western blot analysis; assay type: cell-based
[2] = Antiproliferative activity against human NSC-24 cells at 34.2 ug/ml to 100 uM by WST-1 assay; assay type: cell-based
[3] = Antiproliferative activity against human TG10 cells at 34.2 ug/ml by WST-1 assay; assay type: functional
[4] = Antiproliferative activity against human TG1 cells at 34.2 ug/ml by WST-1 assay; assay type: functional

Indoleamine 2,3-dioxygenase 1, sequence (P14902 whole entry): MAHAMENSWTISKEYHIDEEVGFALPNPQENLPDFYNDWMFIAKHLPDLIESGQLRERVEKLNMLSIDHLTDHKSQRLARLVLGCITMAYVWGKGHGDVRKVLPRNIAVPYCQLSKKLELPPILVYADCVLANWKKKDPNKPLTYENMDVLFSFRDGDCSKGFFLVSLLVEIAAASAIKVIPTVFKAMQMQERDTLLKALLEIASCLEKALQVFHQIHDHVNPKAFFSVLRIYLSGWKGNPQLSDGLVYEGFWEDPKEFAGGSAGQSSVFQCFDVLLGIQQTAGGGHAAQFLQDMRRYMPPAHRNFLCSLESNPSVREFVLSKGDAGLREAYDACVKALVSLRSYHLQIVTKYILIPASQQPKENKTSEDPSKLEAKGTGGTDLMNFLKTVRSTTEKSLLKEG

Structure (SMILES): COc1c2c(c3ccc(=O)oc3c1/C=C/C(C)(C)O)OC(C)(C)C=C2 [AVICENNOL]
- pKi [1]: 3.20
- inhibition (NSC-24): Active
- Activity (TG1): Active
- Activity [2]: Non-toxic
- Activity [3]: 40%
- Activity [4]: 35%

Source: ChEMBL document CHEMBL2010739, “Antiproliferative activity of trans-avicennol from Zanthoxylum chiloperone var. angustifolium against human cancer stem cells” (J Nat Prod, 2012)
